Source: patent US20180200257A1, “METHODS FOR THE TREATMENT OF INFLAMMATORY DISORDERS” (Galapagos NV, priority 2015, published 2018)

System: subjects with moderately to severely active RA who have an inadequate response to methotrexate (MTX)
Experiment: Study 1 (add-on to MTX) - ACR responses (ACR20/50/70)
Type: in vivo, human
From the text: The terms “ACR20”, “ACR50” and “ACR70” as used herein are scores which indicate how much a patient's rheumatoid arthritis has improved according to criteria set out by the American College of Rheumatology (ACR). The ACR score represents a percentage. An ACR20 score means that a person's RA has improved by 20%, an ACR50 score means it has improved by 50%, and an ACR70 score means it has improved by 70%. Specifically, to qualify for an ACR20 score, a person with RA must have at least 20% fewer tender joints and at least 20% fewer swollen joints. In addition the patient must show a 20% improvement in at least three of the following five areas: the person's overall (global) assessment of his or her own RA, the physician's global assessment of the person's RA, the person's assessment of his or her own pain, the person's assessment of his or her own physical functioning, and the results of an erythrocyte sedimentation rate or C-reactive protein (CRP) blood test (both of which test for inflammation). ACR50 and ACR70 scores use the same criteria but require 50% and 70% improvement, respectively, (Felson et al., 1993). In the data presented herein the CRP blood test is used.
Double-blind, placebo-controlled add on study in subjects with moderately to severely active RA who have an inadequate response to methotrexate (MTX) (oral or parenteral).
595 subjects randomized to one of 6 dose regimens of Compound 1 (dosed as [Compound 1:HCl:3H2O]) (3 dose levels administered either once or twice daily) or placebo on top of each subject's stable dose of MTX.
Compound 1 (dosed as [Compound 1:HCl:3H2O]) is dosed for twelve weeks once daily (q.d.) (50 mg, 100 mg or 200 mg) or twice daily (b.i.d.) (25 mg, 50 mg or 100 mg); or placebo.
At Week 12, the subjects on placebo who have not achieved 20% improvement in swollen joint count (SJC66) and tender joint count (TJC68) are re-randomized automatically to receive Compound 1 (dosed as a [Compound 1:HCl:3H2O]) either at 100 mg q.d. or 50 mg b.i.d. doses in a blinded fashion; subjects on 50 mg q.d. who have not achieved 20% improvement in SJC66 and TJC68 will be assigned to 100 mg q.d. and subjects on 25 mg b.i.d. that have not achieved a 20% improvement in SJC66 and TJC68 will be assigned to 50 mg b.i.d. Subjects who switch treatment at week 12 are handled as if they discontinued at week 12 for the purpose of statistical analysis, whereas subjects in the other groups will maintain their randomized treatment until Week 24.
The American College of Rheumatology (ACR) composite score, which evaluates clinical improvement relative to an initial assessment, is a commonly accepted efficacy end point for clinical trials in patients with rheumatoid arthritis. The ACR score correspond to a percentage improvement in pre-set parameters, and therefore measures the evolution of the disease in a patient. For example, ACR20 denotes at least 20% improvement in tender and swollen joint counts and in three of the following end points: global assessment by the patient, global assessment by the doctor, C reactive protein (CRP), patient's pain Visual Analogue Scale and Health Assessment Questionnaire Score. The number of swollen joints, ESR and CRP correlate with radiographic progression of joint damage, whereas tender joint counts, as well as global assessments by doctors and patients, and patients' reports of pain, are sensitive to change in clinical outcomes. Physical function, as assessed by the Health Assessment Questionnaire Score, is a potent predictor of the risk of disability in rheumatoid arthritis (Felson and American College of Rheumatology Committee to Reevaluate Improvement Criteria, 2007; Felson et al., 1993).
In particular, the list of parameters used to assess ACR score can be found in the Table XCVI below and the results of the ACR responses at week 12 via either NRI or LOCF are shown in the tables below. The Hommel-corrected p-value for the pairwise comparisons of each group with placebo is shown. […]

[1] = 100 mg q.d., week 12, 12 weeks results
[2] = 100 mg q.d., week 12, 24 weeks results
[3] = 100 mg q.d., week 16, 24 weeks results
[4] = 100 mg q.d., week 20, 24 weeks results
[5] = 100 mg q.d., week 24, 24 weeks results
[6] = 100 mg q.d., at week 1, 12 weeks results
[7] = 100 mg q.d., at week 1, 24 weeks results
[8] = 100 mg q.d., week 8, 12 weeks results
[9] = 200 mg q.d., week 2, 12 weeks results
[10] = 200 mg q.d., week 2, 24 weeks results
[11] = 200 mg q.d., week 4, 12 weeks results
[12] = 200 mg q.d., week 4, 24 weeks results
[13] = 200 mg q.d., week 8, 24 weeks results
[14] = 200 mg q.d., week 12, 12 weeks results
[15] = 200 mg q.d., week 12, 24 weeks results
[16] = 200 mg q.d., week 16, 24 weeks results
[17] = 200 mg q.d., week 20, 24 weeks results
[18] = 200 mg q.d., week 24, 24 weeks results
[19] = 200 mg q.d., at week 1, 12 weeks results
[20] = 200 mg q.d., at week 1, 24 weeks results
[21] = 200 mg q.d., week 8, 12 weeks results

SMILES: O=C(Nc1nc2cccc(-c3ccc(CN4CCS(=O)(=O)CC4)cc3)n2n1)C1CC1 [Compound 1, cyclopropanecarboxylic acid {5-[4-(1,1-dioxo-thiomorpholin-4-ylmethyl)-phenyl]-[1,2,4]triazolo[1,5-a]pyridin-2-yl}-amide]
- ACR70 (LOCF) [1]: 22.4%
- ACR70 (NRI) [1]: 20.0%
- ACR20 (LOCF) [2]: 67.1%
- ACR20 (NRI) [2]: 62.4%
- ACR50 (LOCF) [2]: 41.2%
- ACR50 (NRI) [2]: 38.8%
- ACR70 (LOCF) [2]: 22.4%
- ACR70 (NRI) [2]: 20.0%
- ACR20 (LOCF) [3]: 69.4%
- ACR20 (NRI) [3]: 64.7%
- ACR50 (LOCF) [3]: 55.3%
- ACR70 (LOCF) [3]: 27.1%
- ACR20 (LOCF) [4]: 76.5%
- ACR20 (NRI) [4]: 69.4%
- ACR50 (LOCF) [4]: 50.6%
- ACR70 (LOCF) [4]: 32.9%
- ACR20 (LOCF) [5]: 72.9%
- ACR20 (NRI) [5]: 60.0%
- ACR50 (LOCF) [5]: 54.1%
- ACR70 (LOCF) [5]: 37.6%
- ACR20 (LOCF) [6]: 32.9%
- ACR20 (NRI) [6]: 34.1%
- ACR50 (LOCF) [6]: 5.9%
- ACR50 (NRI) [6]: 5.9%
- ACR70 (LOCF) [6]: 0.0%
- ACR70 (NRI) [6]: 0.0%
- ACR20 (LOCF) [7]: 34.1%
- ACR20 (NRI) [7]: 34.1%
- ACR50 (LOCF) [7]: 5.9%
- ACR50 (NRI) [7]: 5.9%
- ACR70 (LOCF) [7]: 0.0%
- ACR70 (NRI) [7]: 0.00%
- ACR20 (LOCF) [8]: 63.5%
- ACR20 (NRI) [8]: 63.5%
- ACR50 (LOCF) [8]: 35.3%
- ACR50 (NRI) [8]: 34.1%
- ACR70 (LOCF) [8]: 23.5%
- ACR70 (NRI) [8]: 22.4%
- ACR20 (LOCF) [9]: 48.8%
- ACR20 (NRI) [9]: 48.8%
- ACR50 (LOCF) [9]: 11.6%
- ACR50 (NRI) [9]: 11.6%
- ACR70 (LOCF) [9]: 5.8%
- ACR70 (NRI) [9]: 5.8%
- ACR20 (LOCF) [10]: 48.8%
- ACR20 (NRI) [10]: 48.8%
- ACR50 (LOCF) [10]: 11.6%
- ACR50 (NRI) [10]: 11.6%
- ACR70 (LOCF) [10]: 5.8%
- ACR70 (NRI) [10]: 5.8%
- ACR20 (LOCF) [11]: 55.8%
- ACR20 (NRI) [11]: 55.8%
- ACR50 (LOCF) [11]: 16.3%
- ACR50 (NRI) [11]: 17.4%
- ACR70 (LOCF) [11]: 4.7%
- ACR70 (NRI) [11]: 4.7%
- ACR20 (LOCF) [12]: 55.8%
- ACR20 (NRI) [12]: 55.8%
- ACR50 (LOCF) [12]: 17.4%
- ACR50 (NRI) [12]: 17.4%
- ACR70 (LOCF) [12]: 4.7%
- ACR70 (NRI) [12]: 4.7%
- ACR20 (LOCF) [13]: 69.8%
- ACR20 (NRI) [13]: 69.8%
- ACR50 (LOCF) [13]: 34.9%
- ACR50 (NRI) [13]: 34.9%
- ACR70 (LOCF) [13]: 18.6%
- ACR70 (NRI) [13]: 18.6%
- ACR20 (LOCF) [14]: 70.9%
- ACR20 (NRI) [14]: 68.6%
- ACR50 (LOCF) [14]: 44.2%
- ACR50 (NRI) [14]: 43.0%
- ACR70 (LOCF) [14]: 24.4%
- ACR70 (NRI) [14]: 24.4%
- ACR20 (LOCF) [15]: 70.9%
- ACR20 (NRI) [15]: 69.8%
- ACR50 (LOCF) [15]: 44.2%
- ACR50 (NRI) [15]: 43.0%
- ACR70 (LOCF) [15]: 24.4%
- ACR70 (NRI) [15]: 24.4%
- ACR20 (LOCF) [16]: 74.4%
- ACR20 (NRI) [16]: 73.3%
- ACR50 (LOCF) [16]: 50.0%
- ACR70 (LOCF) [16]: 26.7%
- ACR20 (LOCF) [17]: 76.7%
- ACR20 (NRI) [17]: 73.3%
- ACR50 (LOCF) [17]: 54.7%
- ACR70 (LOCF) [17]: 24.4%
- ACR20 (LOCF) [18]: 77.9%
- ACR20 (NRI) [18]: 73.3%
- ACR50 (LOCF) [18]: 54.7%
- ACR70 (LOCF) [18]: 31.4%
- ACR20 (LOCF) [19]: 25.6%
- ACR20 (NRI) [19]: 27.9%
- ACR50 (LOCF) [19]: 4.7%
- ACR50 (NRI) [19]: 4.7%
- ACR70 (LOCF) [19]: 1.2%
- ACR70 (NRI) [19]: 1.2%
- ACR20 (LOCF) [20]: 27.9%
- ACR20 (NRI) [20]: 27.9%
- ACR50 (LOCF) [20]: 4.7%
- ACR50 (NRI) [20]: 4.7%
- ACR70 (LOCF) [20]: 1.2%
- ACR70 (NRI) [20]: 1.2%
- ACR20 (LOCF) [21]: 68.6%
- ACR20 (NRI) [21]: 68.6%
- ACR50 (LOCF) [21]: 33.7%
- ACR50 (NRI) [21]: 33.7%
- ACR70 (LOCF) [21]: 18.6%
